Among the data in patent US20040228905A1, “Anti-inflammatory and antimicrobial uses for bioactive glass compositions” (priority 1996, published 2004) are kills values, retold here.

For the test, the system named is S. sanguis. Briefly: Anti-bacterial activity of bioactive glass supernates, survivors enumerated by viable counting. It is filed as cell-based. Conditions: non-bioactive glass derived alkaline solution, pH 9.8. On the procedure: Nutrient broth (10 ml) was added to 5 grams of particulate bioactive glass with a pore size between 355 and 500 μm, 5 grams of glass beads (not bioactive glass) with a particle size between 455 and 600 μm, and no glass beads. The resulting solutions were incubated with rotation for 1 h at 37 C. 950 μl of each supernatant was removed and added to 50 μl of an overnight culture of S. sanguis, and incubated for 1 h at 37 C. Survivors were enumerated by viable counting.

Structures are written as SMILES.

In the case of `[Na+].[OH-]` [NaOH], the kills is on record as 40%.
